The results in this text go back to patent publication US20160331783A1, “BISAMIDE COMPOUNDS AS ALLOSTERIC EFFECTORS FOR REDUCING THE OXYGEN-BINDING AFFINITY OF HEMOGLOBIN” (THE GENERAL HOSPITAL CORPORATION, priority 2014, published 2016).

Data set [1] concerns human red blood cells (RBCs) / whole blood. The data set can be described thus: Oxygen dissociation curve (ODC) of RBCs / whole blood, Hemox analyzer, P50. Format: cell-based. To be noted: for P50 of RBCs: RBCs 20 μM as hemoglobin tetramer, 1 h at 37° C.; for P50 of whole blood: hemoglobin 20 μM, tested compound 120 μM, whole blood alone 26 Torr. The method, then: (§1) The ODC of hemoglobin was measured with a Hemox analyzer (TCS Scientific Corporation) at 37° C. For experiments with purified hemoglobin, hemoglobin (20 μM as tetramer) was dissolved in DPBS and antifoam (0.2 vol %, Catalog No. AFA-25, TCS Scientific Corporation) was added to prevent foaming of the sample. Compounds were prepared in DMSO stock solutions then added to hemoglobin. The final concentration of DMSO was adjusted to 5 vol %. For experiments with RBCs, blood was drawn from volunteers into EDTA tubes. The blood was centrifuged for 15 min at 3,000 rpm at 4° C. The supernatant was discarded, and RBCs were washed three times with DPBS, pH 7.4 by dilution to 50% hematocrit. The washed RBCs were then diluted with Hemox solution (mixture of N-[Tris(hydroxymethyl)methyl]-2-aminoethanesulfonic acid (TES, 30 mM), sodium chloride (135 mM), and potassium chloride (5 mM) in water (pH 7.4), TCS Scientific Corporation), and mixed with the test compound stock solutions. When known allosteric effectors NEM (400 μM), 5HMF (2 mM) or formamidine disulfide (400 μM) were mixed with RBCs (20 μM as hemoglobin tetramer) for 1 h at 37° C., P50 was reduced to 8 Torr, 9 Torr, and 9 Torr respectively, which correlated with previous reports (see Garel et al., European Journal of Biochemistry, 1982, 123, 513-519). Data was analyzed by two-tailed, unpaired Student's t test using Microsoft Excel 2007.

The target in data set [2] is T1, hemoglobin (Homo sapiens, UniProt P68871).
T1 construct: incubated in a TBS-T solution containing purified hemoglobin (1 μg/mL)
T1 sequence (P68871 2-147 limits assumed): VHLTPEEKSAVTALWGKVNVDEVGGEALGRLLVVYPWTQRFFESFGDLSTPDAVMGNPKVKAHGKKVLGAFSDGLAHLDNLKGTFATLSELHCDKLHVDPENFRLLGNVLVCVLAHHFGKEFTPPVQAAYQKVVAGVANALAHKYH
T1 sequence (P69905 2-142 partner limits assumed): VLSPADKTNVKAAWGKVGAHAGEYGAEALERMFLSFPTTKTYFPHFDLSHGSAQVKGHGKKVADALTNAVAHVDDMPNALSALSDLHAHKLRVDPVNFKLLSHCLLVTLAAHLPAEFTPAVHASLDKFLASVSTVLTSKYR
Put plainly: Hemoglobin oxygen-binding assay (oxyHb % by spectrophotometry at controlled FO2). To be noted: allosteric effector to hemoglobin tetramer 6 to 1 (mol/mol). Format: biochemical. The method, then:
Test compounds (0.75 μL, 10 mM in DMSO) were added to the central area of two 384 deep well plates forming compound plates. DPBS was used as the solvent for myo-inositol hexaphosphate (IHP) and N-ethylmaleimide (NEM) (10 mM). To prevent oxidation of hemoglobin during the experiment, glucose-6-phosphate (0.4 mg/mL), glucose-6-phosphate dehydrogenase (1.0 U/mL), nicotinamide adenine dinucleotide phosphate (NADP, 0.05 mg/mL), ferredoxin (0.01 mg/mL), ferredoxin-NADP reductase (0.01 U/mL) and catalase (2×10^3 U/mL) were added to hemoglobin to produce the Hayashi reducing system, which is described in detail in Hayashi et al., Biochemica et Biophysica Acta, 1973, 310, 309-316. […]
The alteration of hemoglobin's oxygen-binding affinity by the test compounds binding to hemoglobin was evaluated in an environment where the fractional oxygen pressure (FO2) could be precisely measured and controlled. […] To confirm the allosteric effect of the test compounds, ODC of hemoglobin was measured in the presence and absence of each compound. […]
The ability of small molecules to alter the oxygen affinity of hemoglobin was determined by measuring the fraction of oxygenated hemoglobin (oxyHb %) and oxidized hemoglobin (metHb %) using spectrophotometry under three (high, medium, and low oxyHb saturation) conditions. […]

In data set [3] the target is T2, purified human hemoglobin (Homo sapiens, UniProt P68871).
T2 construct: For experiments with purified hemoglobin, hemoglobin (20 μM as tetramer) was dissolved in DPBS
T2 sequence (P68871 2-147 limits assumed): as the sequence (P68871 2-147 limits assumed) above
T2 sequence (P69905 2-142 partner limits assumed): as the sequence (P69905 2-142 partner limits assumed) above
The data set can be described thus: Oxygen dissociation curve (ODC) of purified hemoglobin, Hemox analyzer, P50. The format is biochemical. To be noted: for P50 with purified hemoglobin: hemoglobin 20 μM, tested compound 120 μM, purified hemoglobin alone 17 Torr. Here is the method:
as §1
A saturating effect on P50 was first determined by adding an increasing concentration of 2,3-DPG and IHP. No increase of P50 of hemoglobin was observed after an addition of a 30-fold molar excess of 2,3-DPG or IHP to hemoglobin. Hemoglobin (20 μM as tetramer) was pre-incubated with either 2,3-DPG (600 μM) or IHP (600 μM) followed by addition of Compound 1 (0, 50, 100, 150 and 200 μM) to the hemoglobin.

The subject of a further data set is RBCs. The data set can be described thus: Hemolysis of RBCs / blood on incubation with compound. To be noted: for Hemolysis of whole blood (P50 of whole blood column): hemoglobin 20 μM, tested compound 120 μM; for Hemolysis of diluted human blood: diluted human blood 50 μM, compound/Hb tetramer 30/1 mol/mol (1.5 mM), FIG. 9. Format: cell-based, human. Also on record: key to Hemolysis of whole blood (P50 of whole blood column): c: does not hemolyze.

The target in data set [4] is T1, hemoglobin. Put plainly: Small molecule microarray (SMM) binding to hemoglobin. To be noted: hemoglobin 1 μg/mL, antibody detection. The method, then:
Test compounds were affixed to SMM slides with isocyanate-functionalized surfaces as described in Casalena et al., Methods in molecular biology, 2012, 803, 249-263. Pre-incubating the SMMs with albumin blocked non-specific binding of the compounds to SMMs. Compounds binding to hemoglobin were detected on the SMMs using a fluorescent dye-conjugated antibodies specific for hemoglobin. The assay was validated by confirming the binding of hemoglobin to 2,3-DPG affixed on SMMs.
Each slide contained 48 “blocks”, and each block contained approximately 100 unique surface-immobilized small molecules. Compounds were printed in duplicate, and each slide was screened in duplicate, resulting in four replicates for every test compound. SMM slides were blocked by incubating them in a TBS-T solution (Tween 20, 0.01 vol %) containing bovine serum albumin (BSA, 0.1 wt %) for 30 min. […]
Using SMM Hits-Analyzer software (Broad Institute), the measured fluorescent signal of the foreground of a given spot (F) was divided by its local background (B) resulting in a calculated F/B ratio for each spot on which the test compounds were affixed. The F/B ratios were fitted to a Cauchy distribution plot for every block on the slide, and “positive” hits were determined using a p-value threshold of 7%. […]

Structures are written as SMILES. Non-standard residues stand in square brackets, D forms with d. Residues, ends and D or L forms follow the SMILES beside them. dNMeBip = CN[C@H](Cc1ccc(-c2ccccc2)cc1)C(=O)O

On to `N=C(N)SSC(=N)N` [formamidine disulfide, reference compound], for which the “P50 of RBCs” value in data set [1] (allosteric effector 400 μM) is recorded as 9 Torr.

Turning to `O=P(O)(O)O[C@H]1[C@H](OP(=O)(O)O)[C@@H](OP(=O)(O)O)[C@H](OP(=O)(O)O)[C@@H](OP(=O)(O)O)[C@H]1OP(=O)(O)O` [IHP, myo-inositol hexaphosphate], the “Change of oxyHb %” value at hemoglobin [2] is recorded as “decrease”.

Turning to `O=Cc1ccc(CO)o1` [Compound 5HMF, reference compound], the “P50 of RBCs” value in data set [1] (allosteric effector 2 mM) came out at 9 Torr.

`CCN1C(=O)C=CC1=O` [NEM, N-ethylmaleimide, reference compound]: the “P50 of RBCs” value in data set [1] (allosteric effector 400 μM) is reported as 8 Torr. The “Change of oxyHb %” value on hemoglobin [2] is “increase”.

On to `Cc1cc(C)cc(C(=O)N(C)C(Cc2ccc(-c3ccccc3)cc2)C(=O)NCC(=O)O)c1` (stereo not drawn) [Compound 9, 2-(3-([1,1′-biphenyl]-4-yl)-2-(N,3,5-trimethylbenzamido)propanamido)acetic acid], for which the “P50 with purified hemoglobin” value in data set [3] worked out at 28 Torr. The “P50 of whole blood” value in data set [1] was 33 Torr. In the data set with RBCs, the “Hemolysis of whole blood (P50 of whole blood column)” value (“Hemolysis of whole blood” for short) is given as “c”.

In the case of `O=C(O)C(COP(=O)(O)O)OP(=O)(O)O` (stereo not drawn) [2,3-DPG, 2,3-diphosphoglycerate, reference compound], the P50 of hemoglobin in data set [3] (hemoglobin 20 μM tetramer, compound 200 μM, DPBS pH 7.4, 5 vol % DMSO, 37° C., hemoglobin alone 17 Torr) is 19±0.1 Torr. In addition, the “P50 of hemoglobin with 2,3-DPG” value in data set [3] (hemoglobin 20 μM, 2,3-DPG 600 μM (pre-saturated), no Compound 1) amounted to 23±0.7 Torr. In addition, the “Binding of hemoglobin to compound affixed on SMMs” value on hemoglobin [4] is on record as “binding”.

As for `CC(=O)N(C)[C@H](Cc1ccc(-c2ccccc2)cc1)C(=O)N[C@@H](Cc1c[nH]c2ccccc12)C(=O)O` [Compound 4, (S)-2-((R)-3-([1,1′-biphenyl]-4-yl)-2-(N-methylacetamido)propanamido)-3-(1H-indol-3-yl)propanoic acid] (Ac-[dNMeBip]-Trp-OH), the “P50 with purified hemoglobin” value in data set [3] stood at 20 Torr.

Regarding `Cc1cc(C)cc(C(=O)N(C)[C@H](Cc2ccccc2)C(=O)N[C@@H](Cc2c[nH]c3ccccc23)C(=O)O)c1` [Compound 2, (S)-3-(1H-indol-3-yl)-2-((R)-3-phenyl-2-(N,3,5-trimethylbenzamido)propanamido)propanoic acid], in data set [3] (FIG. 3, FIG. 6-7), the “Increase of P50 of hemoglobin, dose dependence” value is “concentration-dependent”. Moreover, the “P50 with purified hemoglobin” value in data set [3] turned out to be 20 Torr. The “Oxygen affinity of red blood cells (RBCs)” value in data set [1] (human blood, FIG. 9) is reported as “increased”. In addition, the “Hemolysis of diluted human blood” value in the data set with RBCs is on record as “without hemolysis”.

Consider `CC(=O)N(C)[C@@H](Cc1ccccc1)C(=O)N[C@H](Cc1c[nH]c2ccccc12)C(=O)O` (stereo in doubt) [Compound 5, (R)-3-(1H-indol-3-yl)-2-((S)-2-(N-methylacetamido)-3-phenylpropanamido)propanoic acid], for which, in data set [3], the “P50 with purified hemoglobin” value is given as 18 Torr.

Take `Cc1cc(C)cc(C(=O)NC(Cc2ccc(-c3ccccc3)cc2)C(=O)NCC(=O)O)c1` (stereo not drawn) [Compound 8, 2-(3-([1,1′-biphenyl]-4-yl)-2-(3,5-dimethylbenzamido)propanamido)acetic acid]: the “P50 with purified hemoglobin” value in data set [3] turned out to be 48 Torr. Also, the “P50 of whole blood” value in data set [1] came out at 32 Torr. Moreover, the “Hemolysis of whole blood” value in the data set on RBCs is on record as “c”.

As to `Cc1cc(C)cc(C(=O)N(C)C(Cc2ccc(-c3ccccc3)cc2)C(=O)NC(C)(C)C(=O)O)c1` (stereo not drawn) [Compound 10, 2-(3-([1,1′-biphenyl]-4-yl)-2-(N,3,5-trimethylbenzamido)propanamido)-2-methylpropanoic acid], in data set [3], the “P50 with purified hemoglobin” value was found to be 23 Torr. The “P50 of whole blood” value in data set [1] worked out at 31 Torr. Besides, the “Hemolysis of whole blood” value in the data set on RBCs is “c”.

On to `Cc1cc(C)cc(NC(=O)Cc2ccc(OC(C)(C)C(=O)O)cc2)c1` [RSR-13, reference compound], for which the “Hemolysis of diluted human blood” value in the data set with RBCs is on record as “hemolysis”.
